Measurements taken from paper PMC5843908, “Detection of PRMT1 inhibitors with stopped flow fluorescence” (Signal Transduction and Targeted Therapy, 2018).

How the values were obtained:
PRMT1 [1] = biological target: PRMT1 (Homo sapiens, UniProt Q99873); assay: Stopped flow fluorescence assay of PRMT1 inhibition ([PRMT1] 0.2 µM, [SAM] 3.5 µM, [H4FL] 0.4 µM); type: biochemical;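 note: Stopped-flow traces of fluorescent H4FL peptide quenched on binding PRMT1 and restored on release, recorded 900 s, averaged over repeated drives and fit to a double-exponential model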
From the text: To obtain the IC50 of a specific inhibitor, the relative activities of the enzyme in presence of different concentrations of the inhibitor are required (equation 1).[37] […] By adding different concentrations of the inhibitor to the reaction mixture, the relative activity of the enzyme can be obtained by normalizing K to the reaction rate without the inhibitor, and then calculate the IC50 value using equation 1. In our stopped flow fluorescence assay, the reaction rate of Phase I and Phase II can be obtained by approximating and deriving the double-exponential equation (equation 2). In Phase I, during a very short period of time (where t is small), the curve is nearly linear, and the exponential equation can be approximately described as F1 = a · (−k1) · t. Therefore, the derivation of F1 equals –k1∙a, which is the slope of Phase I. Similarly, the curve of Phase II at early stage can be approximately described as F2 = b · (−k2) · t. This derivation of F2 equals –k2∙b, which is the slope of Phase II. The slopes at various inhibitor concentrations, normalized to the slope in the absence of inhibitor, can be used to obtain the corresponding relative enzyme activity from which the potency value (IC50) of the inhibitor can be calculated with equation 1.
In a stopped flow fluorescence assay, the binding of H4FL to PRMT1 (or the PRMT1—cofactor complex) quenches the peptide fluorescence, while release of the peptide restores the fluorescence. […] The widths of the entrance and exit slits of the monochromator were set to 0.5 mm. An equal volume of samples from two syringes was driven into the observation cell for mixing measurements. The H4FL concentration in all experiments was 0.4 μM. […] The fluorescent signal was recorded for 900 seconds, with 10,000 data points in total. Data from four to six drives were collected and averaged for each curve.
After averaging the shot data, the association time courses were fitted to a double-exponential function (equation 2) using GraphPad Prism (CA, USA). […] F is the fluorescence intensity at time t, k1, and k2 are the rate constants for Phase I and Phase II, a is the amplitude of the fluorescence change for k1, and b is the amplitude of the fluorescence change for k2. Simulation curves based on the values of a, b, k1, and k2 at fixed c = 1 were produced using Matlab. The IC50 value of inhibitors is determined by equation 1 using GraphPad Prism (CA, USA).

PRMT1 [2] = test system: PRMT1; parameters: method as in earlier work; conditions: binary binding to PRMT1; ref 2 (supplement; Feng et al. 2011); cited from earlier work

PRMT1 (Homo sapiens, UniProt Q99873), sequence (Q99873 29-371): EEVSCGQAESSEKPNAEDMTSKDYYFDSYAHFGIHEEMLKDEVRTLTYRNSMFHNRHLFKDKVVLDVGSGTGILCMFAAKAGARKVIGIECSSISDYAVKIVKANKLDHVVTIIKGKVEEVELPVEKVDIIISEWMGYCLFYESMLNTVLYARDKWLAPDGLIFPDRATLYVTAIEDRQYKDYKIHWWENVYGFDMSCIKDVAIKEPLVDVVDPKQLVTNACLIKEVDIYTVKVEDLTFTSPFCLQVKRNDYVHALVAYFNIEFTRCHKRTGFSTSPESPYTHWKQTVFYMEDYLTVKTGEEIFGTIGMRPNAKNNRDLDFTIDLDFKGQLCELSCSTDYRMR

Nc1ncnc2c1ncn2[C@@H]1O[C@H](C[C@@H](N)CC[C@H](N)C(=O)O)[C@@H](O)[C@H]1O [sinefungin]
-b·k2 (slope of Phase II) (PRMT1 [1]; [sinefungin] 0.0375 µM): 0.000574 ± 1.23e-06 s⁻¹ | a (amplitude, Phase I) (PRMT1 [1]; [sinefungin] 0.0375 µM): 0.1645 ± 3.77E-04 | a·k1 (slope of Phase I) (PRMT1 [1]; [sinefungin] 0.0375 µM): 0.0107 ± 4.96e-05 s⁻¹ | b (amplitude, Phase II) (PRMT1 [1]; [sinefungin] 0.0375 µM): -0.1699 ± 1.17E-04 | k1 (rate constant, Phase I) (PRMT1 [1]; [sinefungin] 0.0375 µM): 0.0653 ± 2.62E-04 s^-1 | k2 (rate constant, Phase II) (PRMT1 [1]; [sinefungin] 0.0375 µM): 0.00338 ± 6.86e-06 s⁻¹ | -b·k2 (slope of Phase II) (PRMT1 [1]; [sinefungin] 0.075 µM): 0.00042 ± 1.32e-06 s⁻¹ | a (amplitude, Phase I) (PRMT1 [1]; [sinefungin] 0.075 µM): 0.2064 ± 3.83E-04 | a·k1 (slope of Phase I) (PRMT1 [1]; [sinefungin] 0.075 µM): 0.0115 ± 4.27e-05 s⁻¹ | b (amplitude, Phase II) (PRMT1 [1]; [sinefungin] 0.075 µM): -0.2170 ± 1.94E-04 | k1 (rate constant, Phase I) (PRMT1 [1]; [sinefungin] 0.075 µM): 0.05564 ± 1.79E-04 s^-1 | k2 (rate constant, Phase II) (PRMT1 [1]; [sinefungin] 0.075 µM): 0.00194 ± 5.83e-06 s⁻¹ | -b·k2 (slope of Phase II) (PRMT1 [1]; [sinefungin] 0.15 µM): 0.000351 ± 1.48e-06 s⁻¹ | a (amplitude, Phase I) (PRMT1 [1]; [sinefungin] 0.15 µM): 0.2215 ± 4.17E-04 | a·k1 (slope of Phase I) (PRMT1 [1]; [sinefungin] 0.15 µM): 0.0126 ± 4.69e-05 s⁻¹ | b (amplitude, Phase II) (PRMT1 [1]; [sinefungin] 0.15 µM): -0.2165 ± 3.17E-04 | k1 (rate constant, Phase I) (PRMT1 [1]; [sinefungin] 0.15 µM): 0.05703 ± 1.83E-04 s^-1 | k2 (rate constant, Phase II) (PRMT1 [1]; [sinefungin] 0.15 µM): 0.00162 ± 6.43e-06 s⁻¹ | -b·k2 (slope of Phase II) (PRMT1 [1]; [sinefungin] 0.3 µM): 0.00021 ± 1.94e-06 s⁻¹ | a (amplitude, Phase I) (PRMT1 [1]; [sinefungin] 0.3 µM): 0.2200 ± 4.51E-04 | a·k1 (slope of Phase I) (PRMT1 [1]; [sinefungin] 0.3 µM): 0.0118 ± 4.79e-05 s⁻¹ | b (amplitude, Phase II) (PRMT1 [1]; [sinefungin] 0.3 µM): -0.1711 ± 6.89E-04 | k1 (rate constant, Phase I) (PRMT1 [1]; [sinefungin] 0.3 µM): 0.05374 ± 1.88E-04 s^-1 | k2 (rate constant, Phase II) (PRMT1 [1]; [sinefungin] 0.3 µM): 0.00123 ± 1.02e-05 s⁻¹ | -b·k2 (slope of Phase II) (PRMT1 [1]; [sinefungin] 0.75 µM): 0.000123 ± 2.15e-06 s⁻¹ | a (amplitude, Phase I) (PRMT1 [1]; [sinefungin] 0.75 µM): 0.2668 ± 5.02E-04 | a·k1 (slope of Phase I) (PRMT1 [1]; [sinefungin] 0.75 µM): 0.0149 ± 5.48e-05 s⁻¹ | b (amplitude, Phase II) (PRMT1 [1]; [sinefungin] 0.75 µM): -0.1045 ± 8.19E-04 | k1 (rate constant, Phase I) (PRMT1 [1]; [sinefungin] 0.75 µM): 0.05576 ± 1.77E-04 s^-1 | k2 (rate constant, Phase II) (PRMT1 [1]; [sinefungin] 0.75 µM): 0.00118 ± 1.83e-05 s⁻¹ | -b·k2 (slope of Phase II) (PRMT1 [1]; [sinefungin] 1.5 µM): 7.22e-05 ± 5.34e-06 s⁻¹ | a (amplitude, Phase I) (PRMT1 [1]; [sinefungin] 1.5 µM): 0.287 ± 5.51E-04 | a·k1 (slope of Phase I) (PRMT1 [1]; [sinefungin] 1.5 µM): 0.0164 ± 6.01e-05 s⁻¹ | b (amplitude, Phase II) (PRMT1 [1]; [sinefungin] 1.5 µM): -0.1776 ± 8.27E-03 | k1 (rate constant, Phase I) (PRMT1 [1]; [sinefungin] 1.5 µM): 0.05722 ± 1.79E-04 s^-1 | k2 (rate constant, Phase II) (PRMT1 [1]; [sinefungin] 1.5 µM): 0.000406 ± 2.33e-05 s⁻¹ | -b·k2 (slope of Phase II) (PRMT1 [1]; [sinefungin] 3 µM): 4.12e-05 ± 0.000152 s⁻¹ | a (amplitude, Phase I) (PRMT1 [1]; [sinefungin] 3 µM): 0.2925 ± 5.44E-04 | a·k1 (slope of Phase I) (PRMT1 [1]; [sinefungin] 3 µM): 0.0166 ± 5.83e-05 s⁻¹ | b (amplitude, Phase II) (PRMT1 [1]; [sinefungin] 3 µM): -4.517 | k1 (rate constant, Phase I) (PRMT1 [1]; [sinefungin] 3 µM): 0.05659 ± 1.69E-04 s^-1 | k2 (rate constant, Phase II) (PRMT1 [1]; [sinefungin] 3 µM): 9.13e-06 ± 3.36e-05 s⁻¹ | -b·k2 (slope of Phase II) (PRMT1 [1]; [sinefungin] 7.5 µM): 1.42e-05 ± 0.000372 s⁻¹ | a (amplitude, Phase I) (PRMT1 [1]; [sinefungin] 7.5 µM): 0.2481 ± 5.15E-04 | a·k1 (slope of Phase I) (PRMT1 [1]; [sinefungin] 7.5 µM): 0.0148 ± 5.77e-05 s⁻¹ | b (amplitude, Phase II) (PRMT1 [1]; [sinefungin] 7.5 µM): -4.223 | k1 (rate constant, Phase I) (PRMT1 [1]; [sinefungin] 7.5 µM): 0.05968 ± 1.97E-04 s^-1 | k2 (rate constant, Phase II) (PRMT1 [1]; [sinefungin] 7.5 µM): 3.37e-06 ± 8.82e-05 s⁻¹ | -b·k2 (slope of Phase II) (PRMT1 [1]; [sinefungin] 15 µM): 2.66e-06 ± 0.000274 s⁻¹ | a (amplitude, Phase I) (PRMT1 [1]; [sinefungin] 15 µM): 0.2592 ± 5.43E-04 | a·k1 (slope of Phase I) (PRMT1 [1]; [sinefungin] 15 µM): 0.0145 ± 5.77e-05 s⁻¹ | b (amplitude, Phase II) (PRMT1 [1]; [sinefungin] 15 µM): -0.5239 | k1 (rate constant, Phase I) (PRMT1 [1]; [sinefungin] 15 µM): 0.05599 ± 1.89E-04 s^-1 | k2 (rate constant, Phase II) (PRMT1 [1]; [sinefungin] 15 µM): 5.08e-06 ± 0.000523 s⁻¹

Nc1ncnc2c1ncn2[C@@H]1O[C@H](CSCC[C@H](N)C(=O)O)[C@@H](O)[C@H]1O [SAH, S-adenosyl homocysteine]
-b·k2 (slope of Phase II) (PRMT1 [1]; [SAH] 0.1 µM): 0.000677 ± 1.35e-06 s⁻¹ | a (amplitude, Phase I) (PRMT1 [1]; [SAH] 0.1 µM): 0.2027 ± 4.00E-04 | a·k1 (slope of Phase I) (PRMT1 [1]; [SAH] 0.1 µM): 0.0122 ± 4.9e-05 s⁻¹ | b (amplitude, Phase II) (PRMT1 [1]; [SAH] 0.1 µM): -0.2201 ± 1.26E-04 | k1 (rate constant, Phase I) (PRMT1 [1]; [SAH] 0.1 µM): 0.05995 ± 2.11E-04 s^-1 | k2 (rate constant, Phase II) (PRMT1 [1]; [SAH] 0.1 µM): 0.003078 ± 5.86E-06 s^-1 | -b·k2 (slope of Phase II) (PRMT1 [1]; [SAH] 0.25 µM): 0.000561 ± 1.3e-06 s⁻¹ | a (amplitude, Phase I) (PRMT1 [1]; [SAH] 0.25 µM): 0.2214 ± 4.39E-04 | a·k1 (slope of Phase I) (PRMT1 [1]; [SAH] 0.25 µM): 0.0144 ± 5.59e-05 s⁻¹ | b (amplitude, Phase II) (PRMT1 [1]; [SAH] 0.25 µM): -0.2306 ± 1.33E-04 | k1 (rate constant, Phase I) (PRMT1 [1]; [SAH] 0.25 µM): 0.06487 ± 2.18E-04 s^-1 | k2 (rate constant, Phase II) (PRMT1 [1]; [SAH] 0.25 µM): 0.002434 ± 5.47E-06 s^-1 | -b·k2 (slope of Phase II) (PRMT1 [1]; [SAH] 0.5 µM): 0.000352 ± 1.25e-06 s⁻¹ | a (amplitude, Phase I) (PRMT1 [1]; [SAH] 0.5 µM): 0.2658 ± 3.49E-04 | b (amplitude, Phase II) (PRMT1 [1]; [SAH] 0.5 µM): -0.2629 ± 3.89E-04 | k1 (rate constant, Phase I) (PRMT1 [1]; [SAH] 0.5 µM): 0.06324 ± 1.36E-04 s^-1 | k2 (rate constant, Phase II) (PRMT1 [1]; [SAH] 0.5 µM): 0.00134 ± 4.32E-06 s^-1 | -b·k2 (slope of Phase II) (PRMT1 [1]; [SAH] 1 µM): 0.000234 ± 1.38e-06 s⁻¹ | a (amplitude, Phase I) (PRMT1 [1]; [SAH] 1 µM): 0.2726 ± 3.65E-04 | a·k1 (slope of Phase I) (PRMT1 [1]; [SAH] 1 µM): 0.0186 ± 4.67e-05 s⁻¹ | b (amplitude, Phase II) (PRMT1 [1]; [SAH] 1 µM): -0.2134 ± 6.03E-04 | k1 (rate constant, Phase I) (PRMT1 [1]; [SAH] 1 µM): 0.06815 ± 1.45E-04 s^-1 | k2 (rate constant, Phase II) (PRMT1 [1]; [SAH] 1 µM): 0.001095 ± 5.70E-06 s^-1 | -b·k2 (slope of Phase II) (PRMT1 [1]; [SAH] 2.5 µM): 0.00011 ± 2.16e-06 s⁻¹ | a (amplitude, Phase I) (PRMT1 [1]; [SAH] 2.5 µM): 0.2961 ± 3.73E-04 | a·k1 (slope of Phase I) (PRMT1 [1]; [SAH] 2.5 µM): 0.0213 ± 4.93e-05 s⁻¹ | b (amplitude, Phase II) (PRMT1 [1]; [SAH] 2.5 µM): -0.1862 ± 2.16E-03 | k1 (rate constant, Phase I) (PRMT1 [1]; [SAH] 2.5 µM): 0.07177 ± 1.40E-04 s^-1 | k2 (rate constant, Phase II) (PRMT1 [1]; [SAH] 2.5 µM): 0.0005933 ± 9.36E-06 s^-1 | -b·k2 (slope of Phase II) (PRMT1 [1]; [SAH] 5 µM): 5.14e-05 ± 8.08e-06 s⁻¹ | a (amplitude, Phase I) (PRMT1 [1]; [SAH] 5 µM): 0.2962 ± 3.74E-04 | b (amplitude, Phase II) (PRMT1 [1]; [SAH] 5 µM): -0.3000 ± 3.18E-02 | k1 (rate constant, Phase I) (PRMT1 [1]; [SAH] 5 µM): 0.05757 ± 1.17E-04 s^-1 | k2 (rate constant, Phase II) (PRMT1 [1]; [SAH] 5 µM): 0.0001714 ± 1.98E-05 s^-1 | -b·k2 (slope of Phase II) (PRMT1 [1]; [SAH] 10 µM): 2.22e-05 ± 2.71e-05 s⁻¹ | a (amplitude, Phase I) (PRMT1 [1]; [SAH] 10 µM): 0.2774 ± 5.02E-04 | b (amplitude, Phase II) (PRMT1 [1]; [SAH] 10 µM): -0.2999 ± 2.24E-01 | increasing trend of Phase II (PRMT1 [1]; [SAH] 10 µM): almost abolished | k1 (rate constant, Phase I) (PRMT1 [1]; [SAH] 10 µM): 0.05889 ± 1.70E-04 s^-1 | k2 (rate constant, Phase II) (PRMT1 [1]; [SAH] 10 µM): 7.42e-05 ± 5.74e-05 s⁻¹

acetyl -SGRme2aGKGGKGK(FL)GKGGAKRHRK [H4FLme2]
koff (PRMT1 [2]): 319 s⁻¹ | kon (PRMT1 [2]): 2.6e+07 M⁻¹ s⁻¹
